Here are results for 1 molecule from ChEMBL document CHEMBL1154346 (Bioorg Med Chem Lett, 2009).

Molecules are shown by their SMILES.

As a reminder, the Ki is the dissociation constant of the complex between target and ligand, obtained from inhibition or displacement. High values mean weaker binding, low ones tighter binding.

One series deals with Canis familiaris. Put plainly: Cardiotoxicity in conscious dog assessed as prolongation of QT interval. The format is toxicity, organism-based, Canis lupus familiaris. The note with it: in vivo.
Series [1] deals with Voltage-gated inwardly rectifying potassium channel KCNH2 (Homo sapiens, UniProt Q12809). Put plainly: Displacement of [3H]dofetilide from human ERG expressed in HEK293 cells. The format is cell-based.
Voltage-gated inwardly rectifying potassium channel KCNH2, sequence (Q12809 whole entry): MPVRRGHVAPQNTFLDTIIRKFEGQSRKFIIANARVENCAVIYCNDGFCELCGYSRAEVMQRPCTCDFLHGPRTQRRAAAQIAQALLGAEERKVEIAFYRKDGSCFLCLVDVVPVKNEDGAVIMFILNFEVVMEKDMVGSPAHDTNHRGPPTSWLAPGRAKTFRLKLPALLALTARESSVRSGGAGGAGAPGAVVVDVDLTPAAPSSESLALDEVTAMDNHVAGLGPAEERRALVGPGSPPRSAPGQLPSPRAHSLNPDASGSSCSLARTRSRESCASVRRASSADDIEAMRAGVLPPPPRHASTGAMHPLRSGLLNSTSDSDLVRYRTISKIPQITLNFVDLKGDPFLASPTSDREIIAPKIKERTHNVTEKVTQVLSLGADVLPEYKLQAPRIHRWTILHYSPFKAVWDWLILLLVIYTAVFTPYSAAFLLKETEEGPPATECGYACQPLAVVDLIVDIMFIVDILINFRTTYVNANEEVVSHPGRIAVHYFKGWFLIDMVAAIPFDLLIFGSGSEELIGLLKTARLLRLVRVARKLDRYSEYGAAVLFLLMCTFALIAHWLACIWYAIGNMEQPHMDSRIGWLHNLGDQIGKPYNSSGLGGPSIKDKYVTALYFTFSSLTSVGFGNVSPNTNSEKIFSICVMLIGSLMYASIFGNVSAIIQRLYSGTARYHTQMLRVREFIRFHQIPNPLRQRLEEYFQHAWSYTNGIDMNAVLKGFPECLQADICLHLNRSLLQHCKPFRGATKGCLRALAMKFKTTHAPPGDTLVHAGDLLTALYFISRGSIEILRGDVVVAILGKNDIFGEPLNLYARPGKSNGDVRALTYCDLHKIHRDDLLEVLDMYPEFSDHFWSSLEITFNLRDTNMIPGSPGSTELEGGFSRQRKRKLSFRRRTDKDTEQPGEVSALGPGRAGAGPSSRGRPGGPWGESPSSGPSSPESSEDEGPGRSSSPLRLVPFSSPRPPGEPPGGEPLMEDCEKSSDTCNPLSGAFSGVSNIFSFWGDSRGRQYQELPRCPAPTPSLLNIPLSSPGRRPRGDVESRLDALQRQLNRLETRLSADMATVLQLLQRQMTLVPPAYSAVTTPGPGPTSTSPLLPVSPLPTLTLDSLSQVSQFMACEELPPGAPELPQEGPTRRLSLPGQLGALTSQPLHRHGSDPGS
Series [2] can be described thus: Toxicity in iv dosed mouse assessed as loss of righting reflex. The format is organism-based. The following applies: in vivo, read-out: HD50 (the source's name).

With `CNC(=O)Cn1c(=O)n(C2CCN(CCC(Oc3cc(OC)ccc3C)C(C)C)CC2)c2ccccc21` (racemic), in the series with Canis familiaris, the Activity was found to be 10%. The Ki in series [1] was 56 nM. The TD50 in series [2] was 4.7 µmol/kg.
